Where two headings read alike, the source gives them in different places.
Key:
[1] = tested on: SKBr3 (estrogen receptor negative, Her2 over-expressing breast cancer cells); assay: Anti-proliferative activity against SKBr3 cells; type: cell-based; details: mean ± SD
Description: (§1) Once synthesized, the library of coumermycin A1 analogs containing the olefinic and saturated linkers, were evaluated for anti-proliferative activity against SKBr3 (estrogen receptor negative, Her2 over-expressing breast cancer cells), MCF-7 (estrogen receptor positive breast cancer cells), A549 (human lung adenocarcinoma epithelial), HT29 (Human colon adenocarcinoma grade II), and PC3mm2 (androgen receptor insensitive prostate cancer) cell lines. […] As shown, X is at the 6 position and Y is at the 8 position.

[2] = tested on: MCF-7 (estrogen receptor positive breast cancer cells); assay: Anti-proliferative activity against MCF-7 cells; type: cell-based; details: mean ± SD
Description: as §1

[3] = tested on: PC3mm2 (androgen receptor insensitive prostate cancer); assay: Anti-proliferative activity against PC3mm2 cells; type: cell-based
Description: as §1, with “lines. The activities produced provide insight into the optimal distance between binding sites and provide rationale for subsequent analog design.” for “lines.”

[4] = tested on: A549 (human lung adenocarcinoma epithelial); assay: Anti-proliferative activity against A549 cells; type: cell-based
Description: as §1, with “lines. The activities produced provide insight into the optimal distance between binding sites and provide rationale for subsequent analog design.” for “lines.”

[5] = tested on: HSP90-dependent client proteins (Her-2, Raf, Akt); assay: Western blot analyses of HSP90 client protein degradation in MCF-7 breast cancer cells; type: cell-based; details: MCF-7 lysates, 24 hour treatment, 5x and 1/2 of antiproliferative IC50; actin control
Description: Since actin is not dependent on HSP90 for its maturation, actin levels should remain constant after treatment with an HSP90 inhibitor and is therefore used as a control. […] L represents a concentration ½ of the anti-proliferative IC50 value while H represents a concentration 5 times greater than the anti-proliferative IC50 value. GDA (500 nM) represents a positive control, while DMSO (0), vehicle, serves as the negative control. […]

[6] = tested on: HT29 (Human colon adenocarcinoma grade II); assay: Anti-proliferative activity against HT29 cells; type: cell-based
Description: as §1, with “lines. The activities produced provide insight into the optimal distance between binding sites and provide rationale for subsequent analog design.” for “lines.”

[7] = tested on: cancer cells; details: cited from earlier work
[8] = tested on: SKBr3, MCF-7, A549, HT29 and PC3mm2 cell lines; assay: Anti-proliferative activity, cell lines not specified; type: cell-based; details: 8-methyl coumarin series, versus Compound 32
Description: as §1, with “lines. The activities produced provide insight into the optimal distance between binding sites and provide rationale for subsequent analog design.” for “lines.”

[9] = Table 1, at least two experiments in triplicate, read-out: Anti-Proliferation Activities of Noviosylated Olefin Dimers, SKBr3
[10] = Table 1, at least two experiments in triplicate, read-out: Anti-Proliferation Activities of Noviosylated Olefin Dimers, MCF-7
[11] = Table 2, read-out: Anti-Proliferation Activities of non-Noviosylated Olefin Dimers, SKBr3
[12] = Table 2, read-out: Anti-Proliferation Activities of non-Noviosylated Olefin Dimers, MCF7
[13] = Table 2, read-out: Anti-Proliferation Activities of non-Noviosylated Olefin Dimers, PC3mm2
[14] = Table 2, read-out: Anti-Proliferation Activities of non-Noviosylated Olefin Dimers, A549
[15] = Table 3, read-out: Anti-Proliferation Activities of Saturated Linker Dimers, SKBr3
[16] = Table 3, read-out: Anti-Proliferation Activities of Saturated Linker Dimers, MCF-7
[17] = Table 3, read-out: Anti-Proliferation Activities of Saturated Linker Dimers, PC3mm2
[18] = Table 3, read-out: Anti-Proliferation Activities of Saturated Linker Dimers, A549
[19] = Table 3, read-out: Anti-Proliferation Activities of Saturated Linker Dimers, HT29
[20] = Table 2, read-out: Anti-Proliferation Activities of non-Noviosylated Olefin Dimers, HT29

| Compound | IC50 [1, 9] [nM] | IC50 [2, 10] [nM] | IC50 [1, 11] [nM] | IC50 [2, 12] [nM] | IC50 [3, 13] [µM] | IC50 [4, 14] [µM] | also measured |
| --- | --- | --- | --- | --- | --- | --- | --- |
| COC1C(O)C(O)C(Oc2ccc3cc(NC(=O)c4cccc(-c5cccc(C(=O)Nc6cc7ccc(OC8OC(C)(C)C(OC)C(O)C8O)c(C)c7oc6=O)c5)c4)c(=O)oc3c2C)OC1(C)C (centres unmarked) [Compound 65] | – | – | – | – | – | – | IC50 ([1]; Table 4, read-out: Anti-Proliferation Activities of Biaryl Dimers, SKBr3): 860 ± 140 nM; IC50 ([2]; Table 4, read-out: Anti-Proliferation Activities of Biaryl Dimers, MCF-7): 1260 ± 170 nM |
| COC1C(O)C(O)C(Oc2ccc3cc(NC(=O)CC=CCC(=O)Nc4cc5ccc(OC6OC(C)(C)C(OC)C(O)C6O)c(C)c5oc4=O)c(=O)oc3c2C)OC1(C)C (centres unmarked) [Compound 20] | > 100000 | 53100 ± 7100 | – | – | – | – | – |
| COc1c(OC2CCN(C)CC2)ccc2cc(NC(=O)CC/C=C/CCC(=O)Nc3cc4ccc(OC5CCN(C)CC5)c(OC)c4oc3=O)c(=O)oc12 [Compound 31] | – | – | 2220 ± 500 | 1120 ± 30 | 0.06 | 1.22 | degradation of HSP90 client proteins (Her-2, Raf, Akt), Western blot [5]: no activity against HSP90 client proteins |
| Cc1c(OC2CCN(C)CC2)ccc2cc(NC(=O)CCCCCCC(=O)Nc3cc4ccc(OC5CCN(C)CC5)c(C)c4oc3=O)c(=O)oc12 [Compound 43] | – | – | – | – | – | – | IC50 [1, 15]: 1190 ± 300 nM; IC50 [2, 16]: 2820 ± 300 nM; IC50 [3, 17]: 13.8 µM; IC50 [4, 18]: 30.4 µM; IC50 [6, 19]: 26.3 µM |
| CO[C@H]1[C@H](OC(=O)c2ccc(C)[nH]2)[C@H](O)[C@@H](Oc2ccc3c(O)c(NC(=O)c4c[nH]c(C(=O)Nc5c(O)c6ccc(O[C@H]7OC(C)(C)[C@@H](OC)[C@H](OC(=O)c8ccc(C)[nH]8)[C@@H]7O)c(C)c6oc5=O)c4C)c(=O)oc3c2C)OC1(C)C [coumermycin A1] | – | – | – | – | – | – | IC50 ([7]; previously found, background, read-out: IC50 against cancer cells (anti-proliferative activity)): 70 µM; fold increase in anti-proliferative activity over novobiocin ([7]; relative to novobiocin): 10 fold |
| COc1c(OC2OC(C)(C)C(OC)C(O)C2O)ccc2cc(NC(=O)CC=CCC(=O)Nc3cc4ccc(OC5OC(C)(C)C(OC)C(O)C5O)c(OC)c4oc3=O)c(=O)oc12 (centres unmarked) [Compound 17] | 52000 ± 7800 | > 100000 | – | – | – | – | – |
| Cc1c(OCCCN(C)C)ccc2cc(NC(=O)C/C=C/CC(=O)Nc3cc4ccc(OCCCN(C)C)c(C)c4oc3=O)c(=O)oc12 [Compound 36] | – | – | 460 ± 20 | 840 | 15.2 | 19.4 | IC50 [6, 20]: 12.2 µM; degradation of HSP90 client proteins (Her-2, Raf, Akt), Western blot [5]: no activity against HSP90 client proteins |
| COc1c(OC2CCN(C)CC2)ccc2cc(NC(=O)CCC/C=C/CCCC(=O)Nc3cc4ccc(OC5CCN(C)CC5)c(OC)c4oc3=O)c(=O)oc12 [Compound 34] | – | – | 370 ± 50 | 880 ± 110 | 0.05 | 1.21 | – |
| Cc1c(OC2CCN(C)CC2)ccc2cc(NC(=O)CCCCCCCCC(=O)Nc3cc4ccc(OC5CCN(C)CC5)c(C)c4oc3=O)c(=O)oc12 [Compound 44] | – | – | – | – | – | – | IC50 [1, 15]: 2840 ± 100 nM; IC50 [2, 16]: 3680 ± 400 nM; IC50 [3, 17]: 10.2 µM; IC50 [4, 18]: 13.2 µM; IC50 [6, 19]: 3.9 µM |

The next lines start with results.

| IC50 [1, 9] [nM] | IC50 [2, 10] [nM] | IC50 [1, 11] [nM] | IC50 [2, 12] [nM] | IC50 [3, 13] [µM] | IC50 [4, 14] [µM] | Compound | also measured |
| --- | --- | --- | --- | --- | --- | --- | --- |
| 106000 ± 13200 | 168000 ± 9700 | – | – | – | – | COc1cc2cc(NC(=O)CCC=CCCC(=O)Nc3cc4cc(OC)c(OC5OC(C)(C)C(OC)C(O)C5O)c(C)c4oc3=O)c(=O)oc2c(C)c1OC1OC(C)(C)C(OC)C(O)C1O (centres unmarked) [Compound 18] | – |
| – | – | 220 ± 50 | 310 ± 50 | 0.38 | 37.7 | COc1cc2cc(NC(=O)CCC/C=C/CCCC(=O)Nc3cc4cc(OC)c(OC5CCN(C)CC5)c(C)c4oc3=O)c(=O)oc2c(C)c1OC1CCN(C)CC1 [Compound 33] | – |
| – | – | 150 ± 10 | 270 ± 20 | 4.19 | 5.54 | Cc1c(OC2CCN(C)CC2)ccc2cc(NC(=O)CC/C=C/CCC(=O)Nc3cc4ccc(OC5CCN(C)CC5)c(C)c4oc3=O)c(=O)oc12 [Compound 29] | IC50 [6, 20]: 0.05 µM; fold more active than the 10-carbon linker (Compound 32) [8]: 2-3 fold |
| 1500 ± 100 | 3900 ± 700 | – | – | – | – | COC1C(O)C(O)C(Oc2ccc3cc(NC(=O)CCC=CCCC(=O)Nc4cc5ccc(OC6OC(C)(C)C(OC)C(O)C6O)c(C)c5oc4=O)c(=O)oc3c2C)OC1(C)C (centres unmarked) [Compound 21] | – |
